Experimental data published in patent publication US8765719B2, “Therapeutic drug for adult T-cell leukemia” (Kagoshima University, priority 2008, dated 2014).
Read-outs that look alike come from different tables or passages of the source. Each block holds one compound with its values, some of them ahead of it.

Key:
Format in all cases: cell-based
[1] = system: MOLT-4 (acute lymphoblastic leukemia cell strain); experiment: Growth inhibition of MOLT-4 control cells, 4-day culture, MTT method; conditions: MOLT-4 cells, 4 days
Protocol: (§1) In the presence of various agents, S1T (cell strain originated from an ATL patient), MT-2 (HTLV-1 infected cell strain), and as controls, MOLT-4 (acute lymphoblastic leukemia cell strain), CEM (acute lymphoblastic leukemia cell strain), HL-60 (acute promyelocytic leukemia cell strain), and Jurkat (acute T-cell leukemia cell strain) were cultivated for 4 days, and the growth inhibitory effects of compounds on the respective cells were evaluated by the MIT method.
(§2) In the presence of various concentrations of agents, SIT (cell strain originated from an ATL patient) and as a control MOLT-4 (acute lymphoblastic leukemia cell strain) were cultivated for 4 days, and the growth inhibitory effects of the compounds on the respective cells were evaluated by the MTT method.

[2] = system: S1T (cell strain originated from an ATL patient); experiment: Growth inhibition of S1T cells, 4-day culture, MTT method; conditions: for IC50: S1T cells, 4 days; for Selectivity to ATL cell (S1T) in words: S1T versus MOLT-4; for Selectivity index on the S1T cell (SI = IC50 for MOLT-4/IC50 for S1T): screen with S1T and MOLT-4
Protocol: as §1, §2

[3] = system: HL-60 (acute promyelocytic leukemia cell strain); experiment: Growth inhibition of HL-60 control cells, 4-day culture; conditions: HL-60 cells, 4 days
Protocol: as §1, with “S1T” left out

[4] = system: Jurkat (acute T-cell leukemia cell strain); experiment: Growth inhibition of Jurkat control cells, 4-day culture; conditions: 4 days
Protocol: as §1, with “S1T” left out

[5] = system: CEM (acute lymphoblastic leukemia cell strain); experiment: Growth inhibition of CEM control cells, 4-day culture; conditions: 4 days
Protocol: as §1, with “S1T” left out

[6] = system: MT-2 (HTLV-1 infected cell strain); experiment: Growth inhibition of MT-2 cells, 4-day culture; conditions: 4 days
Protocol: as §1, with “S1T” left out

[7] = Homo sapiens, 96 h, Table 1, concentration to inhibit cell growth by 50%, read-out: IC50 (μM) MOLT-4
[8] = Homo sapiens, 96 h, Table 1, concentration to inhibit cell growth by 50%, read-out: IC50 (μM) S1T
[9] = Table 1, selectivity index = IC50 for MOLT-4/IC50 for S1T
[10] = Homo sapiens, 96 h, Table 2, MTT, mean of at least 2 experiments, read-out: IC50 (μM) MOLT-4 cell
[11] = Homo sapiens, 96 h, Table 2, MTT, mean of at least 2 experiments, read-out: IC50 (μM) S1T cell
[12] = Table 2, selectivity to ATL cell (IC50 for MOLT-4/IC50 for S1T)
[13] = Table 2, MTT, mean of at least 2 experiments, read-out: IC50 (μM) MOLT-4 cell
[14] = Table 2, MTT, mean of at least 2 experiments, read-out: IC50 (μM) S1T cell

Structure (SMILES): CC1(C)CCC(C)(C)c2cc(C(=O)O)c(O)cc21 [TNBAA, reference compound]
IC50 [1, 7]: 44.4 µM
IC50 [2, 8]: 29.7 µM
SI [2, 9]: 1.49

IC50 [1, 10]: 34.6 ± 1.5 µM
Structure (SMILES): CC(C)C(=O)c1ccc2c(c1)C(C)(C)CCC2(C)C [Agent F, 5,6,7,8-tetrahydro-5,5,8,8-tetramethyl-2-naphthyl isopropyl ketone]
IC50 [2, 11]: 3.8 ± 2.1 µM
SI [2, 12]: 9.1

Structure (SMILES): O=C([O-])c1ccccc1O.[Na+] [Sodium salicylate, reference compound]
IC50 [1, 7]: 1320 µM
IC50 [2, 8]: 1570 µM
Selectivity to ATL cell (S1T) in words [2]: no selectivity to S1T was recognized
SI [2, 9]: 0.84

IC50 [1, 13]: 39.4 ± 10.4 µM
Structure (SMILES): CC1(C)CCC(C)(C)c2cc(C(N)=O)ccc21 [Agent K, 5,6,7,8-tetrahydro-5,5,8,8-tetramethyl-2-naphthyl amide]
IC50 [2, 14]: 37 ± 2.1 µM
SI [2, 12]: 1.1

IC50 [1, 10]: 13.6 ± 2.6 µM
Structure (SMILES): CC1(C)CCC(C)(C)c2cc3c(cc21)OCCC3=O [Agent O, 2,3,6,7,8,9-hexahydro-6,6,9,9-tetramethyl-4H-naphtho[2,3-b]pyran-4-one]
IC50 [2, 11]: 6.7 ± 0.9 µM
SI [2, 12]: 2.0

Structure (SMILES): CC(=O)c1cc2c(cc1O)C(C)(C)CCC2(C)C [TMNAA, 5,6,7,8-tetrahydro-3-hydroxy-5,5,8,8-tetramethyl-2-naphthyl methyl ketone]
Growth inhibitory effect on HL-60 [3]: specific inhibitory effect solely on MT-2
Growth inhibitory effect on Jurkat [4]: specific inhibitory effect solely on MT-2
IC50 [1, 7]: 53.8 µM
Growth inhibitory effect on CEM [5]: specific inhibitory effect solely on MT-2
Growth inhibitory effect on MT-2 [6]: specific inhibitory effect solely on MT-2
Concentration at which growth of an ATL cell is selectively inhibited in comparison to the control ([2]; FIG. 1): ≥ 4 µM
IC50 [2, 8]: 5 µM
Selectivity to ATL cell (S1T) in words [2]: higher selectivity to an ATL cell than other derivatives with analogous structures
SI [2, 9]: 10.8
Selectivity index on the S1T cell (SI = IC50 for MOLT-4/IC50 for S1T) [2]: ≥ 10
Selectivity index on the S1T cell (SI = IC50 for MOLT-4/IC50 for S1T) ([2]; listed as compound of the formula III): above 10

Structure (SMILES): CC(C)(C)C(=O)c1cc2c(cc1O)C(C)(C)CCC2(C)C [Agent C, 5,6,7,8-tetrahydro-3-hydroxy-5,5,8,8-tetramethyl-2-naphthyl tert-butyl ketone]
IC50 [1, 10]: 43.2 ± 2.4 µM
IC50 [2, 11]: 41.5 ± 0.8 µM
SI [2, 12]: 1.0

Structure (SMILES): CC(=S)c1cc2c(cc1O)C(C)(C)CCC2(C)C [Agent G, 5,6,7,8-tetrahydro-3-hydroxy-5,5,8,8-tetramethyl-2-naphthyl ethanethione]
IC50 [1, 13]: 36.4 ± 2.1 µM
IC50 [2, 14]: 6.9 ± 2.3 µM
SI [2, 12]: 5.3

IC50 [1, 10]: 21.5 ± 2.2 µM
Structure (SMILES): CCC(=O)c1ccc2c(c1)C(C)(C)CCC2(C)C [Agent E, 5,6,7,8-tetrahydro-5,5,8,8-tetramethyl-2-naphthyl ethyl ketone]
IC50 [2, 11]: 3.3 ± 1 µM
SI [2, 12]: 6.5

Structure (SMILES): CN(C)C=CC(=O)c1cc2c(cc1O)C(C)(C)CCC2(C)C [Agent M, 5,6,7,8-tetrahydro-3-hydroxy-5,5,8,8-tetramethyl-2-naphthyl 13-(N,N-dimethylamino)vinyl ketone]
IC50 [1, 13]: 9.3 ± 0.9 µM
IC50 [2, 14]: 2.1 ± 0.1 µM
SI [2, 12]: 4.4

IC50 [1, 7]: > 100 µM
Structure (SMILES): CC1(C)CCC(C)(C)c2ccccc21 [TMN, reference compound]
IC50 [2, 8]: > 100 µM

Structure (SMILES): CC(C)C(=O)c1cc2c(cc1O)C(C)(C)CCC2(C)C [Agent B, 5,6,7,8-tetrahydro-3-hydroxy-5,5,8,8-tetramethyl-2-naphthyl isopropyl ketone]
IC50 [1, 10]: 31.9 ± 0.2 µM
IC50 [2, 11]: 6 ± 0.7 µM
SI [2, 12]: 5.3

IC50 [1, 7]: 61.1 µM
Structure (SMILES): CC1(C)CCC(C)(C)c2cc(C(=O)O)ccc21 [TMBA, reference compound]
IC50 [2, 8]: > 100 µM
SI [2, 9]: <0.61

IC50 [1, 7]: 66 µM
Structure (SMILES): CC(=O)c1ccc2c(c1)C(C)(C)CCC2(C)C [TMN(COCH3), 5,6,7,8-tetrahydro-5,5,8,8-tetramethyl-2-naphthyl methyl ketone]
IC50 [2, 8]: 6.9 µM
Selectivity to ATL cell (S1T) in words [2]: higher selectivity to an ATL cell than other derivatives with analogous structures
SI [2, 9]: 9.6

IC50 [1, 10]: 11.8 ± 2.2 µM
Structure (SMILES): CC1(C)CCC(C)(C)c2cc(C(=O)c3ccccc3)ccc21 [Agent H, 5,6,7,8-tetrahydro-5,5,8,8-tetramethyl-2-naphthyl phenyl ketone]
IC50 [2, 11]: 7 ± 0.9 µM
SI [2, 12]: 1.7

IC50 [1, 10]: 14.5 ± 1.9 µM
Structure (SMILES): CC1(C)CCC(C)(C)c2cc3c(=O)ccoc3cc21 [Agent N, 6,7,8,9-tetrahydro-6,6,9,9-tetramethyl-4H-naphtho[2,3-b]pyran-4-one]
IC50 [2, 11]: 1.9 ± 0.2 µM
SI [2, 12]: 7.6

IC50 [1, 7]: 11.9 µM
Structure (SMILES): COc1cc2c(cc1C(C)=O)C(C)(C)CCC2(C)C [TMN(OCH3) (COCH3)]
IC50 [2, 8]: 7 µM
Selectivity to ATL cell (S1T) in words [2]: higher selectivity to an ATL cell than other derivatives with analogous structures
SI [2, 9]: 1.7

IC50 [1, 13]: 9.9 µM
Structure (SMILES): CON(C)C(=O)c1ccc2c(c1)C(C)(C)CCC2(C)C [Agent J, 5,6,7,8-tetrahydro-5,5,8,8-tetramethyl-2-naphthyl-N-methoxy-N-methylamide]
IC50 [2, 14]: 12.6 ± 2.1 µM
SI [2, 12]: <1.0

Structure (SMILES): CC1(C)CCC(C)(C)c2cc(C(=O)c3ccccc3)c(O)cc21 [Agent D, 5,6,7,8-tetrahydro-3-hydroxy-5,5,8,8-tetramethyl-2-naphthyl phenyl ketone]
IC50 [1, 10]: 28.3 ± 0.7 µM
IC50 [2, 11]: 15.2 ± 2.3 µM
SI [2, 12]: 1.9

Structure (SMILES): CCC(=O)c1cc2c(cc1O)C(C)(C)CCC2(C)C [Agent A, 5,6,7,8-tetrahydro-3-hydroxy-5,5,8,8-tetramethyl-2-naphthyl ethyl ketone]
IC50 [1, 10]: 32.3 ± 5.4 µM
IC50 [2, 11]: 4.7 ± 1.3 µM
SI [2, 12]: 6.9
